Reference: the supplement of paper PMC10878532, “Sperm Toolbox—A selection of small molecules to study human spermatozoa” (PLOS ONE, 2024)

Experiments:
[1] = test system: human spermatozoa; assay: progressively motile sperm, percent change vs DMSO (capacitating); higher = more of the measured sperm population than DMSO, for viability, fewer PI-positive (dead) cells than DMSO; details: incubation time: 30min incubation
[2] = test system: HepG2; assay: HepG2 toxicity (resazurin), effect normalised to DMSO (DMSO = 0); higher = more features changed / larger toxic effect; details: incubation time: 70h incubation
[3] = test system: HeLa; assay: Cell Painting percent induction (share of features beyond 2 z-scores vs DMSO); higher = more features changed / larger toxic effect; extreme values may be limits of the assay; details: incubation time: 24h incubation
[4] = test system: human spermatozoa; assay: hyperactivated motile sperm, percent change vs DMSO (capacitating); higher = more of the measured sperm population than DMSO, for viability, fewer PI-positive (dead) cells than DMSO; details: incubation time: 30min incubation
[5] = test system: HeLa; assay: HeLa toxicity: nuclei-count effect normalised to DMSO (DMSO = 0); higher = more features changed / larger toxic effect; details: incubation time: 24h incubation
[6] = test system: human spermatozoa; assay: change in acrosome-reacted (PNA+) sperm vs DMSO, no agonist (capacitating); higher = more of the measured sperm population than DMSO, for viability, fewer PI-positive (dead) cells than DMSO; details: incubation time: 3h
[7] = test system: human spermatozoa; assay: acrosome-reacted (PNA+) sperm after agonist cocktail, percent change vs DMSO (capacitating); higher = more of the measured sperm population than DMSO, for viability, fewer PI-positive (dead) cells than DMSO; details: incubation time: 3h, capacitating + agonist cocktail 1h
[8] = test system: human spermatozoa; assay: total motile sperm, percent change vs DMSO (non-capacitating); higher = more of the measured sperm population than DMSO, for viability, fewer PI-positive (dead) cells than DMSO
[9] = test system: human spermatozoa; assay: progressively motile sperm, percent change vs DMSO (non-capacitating); higher = more of the measured sperm population than DMSO, for viability, fewer PI-positive (dead) cells than DMSO; extreme values may be limits of the assay
[10] = test system: human spermatozoa; assay: viability fold change, 1 - (PI-positive fraction / DMSO median); higher = more of the measured sperm population than DMSO, for viability, fewer PI-positive (dead) cells than DMSO; details: incubation time: 3h, non-capacitating
[11] = incubation time: 10min incubation, 9.99 µM
[12] = incubation time: 10min incubation, 29.9 µM
[13] = incubation time: 3h incubation, 9.99 µM
[14] = incubation time: 3h incubation, 29.9 µM
[15] = incubation time: 6h incubation, 9.99 µM
[16] = incubation time: 6h incubation, 29.9 µM
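Throughout, for progressively motile sperm, percent change vs DMSO (non-capacitating): pooled live human sperm from at least 3 donors, tracked by automated microscopy in 0.5 s time-lapse movies, compounds at 10 and 30 µM, versus median of 16 DMSO wells per plate.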
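Throughout, for total motile sperm, percent change vs DMSO (non-capacitating): sperm pooled from at least 3 donors, tracked in 0.5 s time-lapse movies by automated microscopy after 10 min, 3 h or 6 h with compound at 10 or 30 µM.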

| SMILES | progressively motile sperm ([1]; 9.99 µM) [%] | progressively motile sperm ([1]; 29.9 µM) [%] | HepG2 toxicity ([2]; 10 µM) [%] | HepG2 toxicity ([2]; 30 µM) [%] | Cell Painting percent induction ([3]; 9.99 µM) [%] | Cell Painting percent induction ([3]; 29.9 µM) [%] | hyperactivated motile sperm ([4]; 9.99 µM) [%] | hyperactivated motile sperm ([4]; 29.9 µM) [%] | HeLa toxicity: nuclei-count effect normalised ([5]; 9.99 µM) [%] | HeLa toxicity: nuclei-count effect normalised ([5]; 29.9 µM) [%] | change in acrosome-reacted ([6]; 9.99 µM) [%] | change in acrosome-reacted ([6]; 29.9 µM) [%] | acrosome-reacted ([7]; 9.99 µM) [%] | acrosome-reacted ([7]; 29.9 µM) [%] | total motile sperm [8, 11] [%] | total motile sperm [8, 12] [%] | total motile sperm [8, 13] [%] | total motile sperm [8, 14] [%] | total motile sperm [8, 15] [%] | total motile sperm [8, 16] [%] | progressively motile sperm [9, 11] [%] | progressively motile sperm [9, 12] [%] | progressively motile sperm [9, 13] [%] | progressively motile sperm [9, 14] [%] | progressively motile sperm [9, 15] [%] | progressively motile sperm [9, 16] [%] | viability fold change ([10]; 9.99 µM) | viability fold change ([10]; 29.9 µM) |
| --- | --- | --- | --- | --- | --- | --- | --- | --- | --- | --- | --- | --- | --- | --- | --- | --- | --- | --- | --- | --- | --- | --- | --- | --- | --- | --- | --- | --- |
| [O]=[V]([O-])([O-])[O-] [Sodium orthovanadate] | 5.23 | 3.21 | -3.1 | 8.27 | 0 | 0 | 14.9 | 5.6 | -6.61 | -4.07 | 0.239 | 0.284 | 9.33 | 1.67 | 2.91 | 0.876 | 8.66 | -0.441 | 8.42 | -0.812 | 7.34 | 4.35 | 13.8 | 7.93 | 20 | 10.3 | -0.276 | -0.0929 |
| CCc1c(C)nc(SCC(=O)Nc2nc(-c3ccc(OC)cc3)cs2)[nH]c1=O [T16Ainh-A01] | 2.99 | 14.4 | -6.4 | -1.86 | 0 | 0.108 | -2.36 | -0.263 | 6.48 | -5.14 | 0.555 | 1.02 | 8.11 | 6.61 | 2.04 | 2.24 | -4.04 | 0.707 | -7.94 | -0.932 | 5.37 | 6.45 | 1.94 | 14.7 | 4.81 | 19.4 | -0.653 | -0.578 |
| CNC(=O)c1ccccc1Nc1nc(Nc2ccc(N3CCOCC3)cc2OC)ncc1Cl [TAE226] | -5.22 | -5.06 | 92.5 | 99.8 | 1.84 | 21.1 | 137 | 34.1 | 45.5 | 83.4 | 1.37 | 1.97 | 10.7 | 31.6 | 0.613 | 1.31 | -18.9 | -22.2 | -16.2 | -14.9 | 30.1 | 34.5 | 9.37 | 3.96 | 25.7 | 23.8 | -0.257 | 0.581 |
| CC(C)(O)c1ccn2c(-c3ccc(F)c(-c4ccc(F)cc4C#N)c3)cnc2c1F [TP 003] | 12.3 | 2.2 | 3.92 | 16.1 | 0.324 | 2.31 | 59.6 | -58 | 15.4 | 27.2 | 1.9 | 2.84 | 100 | 116 | 1.87 | -0.967 | -7.62 | -8.89 | -7.79 | -10.8 | 41.3 | 34.6 | 73.6 | 57.9 | 96 | 62.3 | -1.77 | -1.42 |
